Source: patent EP3120851A1, “4-AMINO-6-(2,6-DICHLOROPHENYL)-8-METHYL-2-(PHENYLAMINO)-PYRIDO[2,3-D]PYRIMIDIN-7(8H)-ONE FOR TREATMENT OF SOLID CANCERS” (Pangaea Biotech S.L., priority 2015, dated 2017)

Key:
Experiment in all cases: radiometric protein kinase assay (33PanQinase Activity Assay)
Format in all cases: biochemical
Conditions in all cases: singlicate, read-out: residual activity
DDR2 N456S = biological target: T1, DDR2 N456S (Homo sapiens, UniProt Q16832, N456S)
T1 construct: GST or His (not specified per kinase); purchased ProQinase (panel service); host or cells: Sf9 insect cells or E. coli
T1 sequence (Q16832 22-855 N456S): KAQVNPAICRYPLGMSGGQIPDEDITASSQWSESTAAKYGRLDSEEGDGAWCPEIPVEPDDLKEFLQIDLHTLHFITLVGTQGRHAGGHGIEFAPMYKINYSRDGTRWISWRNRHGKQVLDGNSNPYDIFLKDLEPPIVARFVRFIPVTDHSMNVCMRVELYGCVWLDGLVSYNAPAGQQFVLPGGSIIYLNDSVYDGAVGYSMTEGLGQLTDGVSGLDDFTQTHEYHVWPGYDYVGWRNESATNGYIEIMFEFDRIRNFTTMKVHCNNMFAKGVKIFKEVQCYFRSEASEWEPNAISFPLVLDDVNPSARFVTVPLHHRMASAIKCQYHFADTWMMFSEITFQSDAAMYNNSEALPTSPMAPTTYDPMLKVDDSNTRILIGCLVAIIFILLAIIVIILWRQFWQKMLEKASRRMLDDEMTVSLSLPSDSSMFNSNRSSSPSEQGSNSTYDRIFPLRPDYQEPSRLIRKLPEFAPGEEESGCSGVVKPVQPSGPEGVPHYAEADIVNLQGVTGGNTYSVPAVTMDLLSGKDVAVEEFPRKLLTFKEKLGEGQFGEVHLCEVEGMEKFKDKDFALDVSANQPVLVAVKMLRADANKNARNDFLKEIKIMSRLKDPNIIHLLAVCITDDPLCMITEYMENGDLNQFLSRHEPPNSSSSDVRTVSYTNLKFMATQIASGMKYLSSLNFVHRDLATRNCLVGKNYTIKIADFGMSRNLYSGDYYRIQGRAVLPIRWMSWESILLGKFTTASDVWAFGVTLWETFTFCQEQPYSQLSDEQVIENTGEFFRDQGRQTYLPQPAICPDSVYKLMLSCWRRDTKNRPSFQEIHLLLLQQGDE
Method: (§1) In a first experiment, the kinase inhibition profile of the compound of formula (1) was evaluated at Proqinase (http://www.proqinase.com) by measuring residual activity values at a concentration of 10 µM of the test compound in singlicate in front of the following kinases: ABL2, EPHA3, CSF1-R, DDR2 wt, DDR2 N456 S, EGF-R d746-750, EGF-R d747-752/P753S, EGF-R G719C, EGF-R G719S, EGF-R L858R, EGF-R L861Q, EGF-R wt, EPHA1, EPHA2, EPHB1, ERBB4, LCK, MINK1, RAF1 Y340D/Y341D (untagged), RIPK2, STK17A. In a second experiment, the kinase inhibition profile of the compound of formula (1) was evaluated at Proqinase (http://www.proqinase.com) by measuring residual activity values at a concentration of 0.5 and 10 µM of the test compound in singlicate in front of a panel of 300 kinases using the following protocol:
(§2) The compounds were dissolved to 1 x 10^-03 M stock solutions in 100% DMSO. Subsequently, 100 µl of each stock solution were transferred into wells A3-F12 of a microtiter plate ("master plate"). Wells A1-F2 were filled with 100 µl 100% DMSO as controls. 5 x 10 µl of the master plate were aliquoted into 5 copy plates, which were stored at -20° Celsius until use. For the testing of each group of up to 8 kinases, one copy plate was used.
(§3) In the process, 90 µl H2O were added to each well of a copy plate. To minimize precipitation, the H2O was added to each well only a few minutes before the transfer of the compound solutions into the assay plates. The plate was shaken thoroughly, resulting in a "compound dilution plate" with a compound concentration of 1 x 10^-04 M/10 % DMSO. This plate was used for the transfer of 5 µl compound solution into the assay plates. The final volume of the assay was 50 µl. All compounds were tested at 1 x 10^-05 M in singlicate. The final DMSO concentration in the reaction cocktails was 1 % in all cases. The compound dilution plates were disposed at the end of each working day.
(§4) A radiometric protein kinase assay (^33PanQinase® Activity Assay) was used for measuring the kinase activity of the corresponding protein kinases. All kinase assays were performed in 96-well FlashPlatesTM from Perkin Elmer (Boston, MA, USA) in a 50 µl reaction volume. The reaction cocktail was pipetted in 4 steps in the following order: • 10 µl of non-radioactive ATP solution (in H2O) • 25 µl of assay buffer/ [γ-33P]-ATP mixture • 5 µl of test sample in 10% DMSO • 10 µl of enzyme/substrate mixture
(§5) The protein kinase reaction cocktails were incubated at 30°C for 60 minutes. The reaction was stopped with 50 µl of 2 % (v/v) H3PO4, plates were aspirated and washed two times with 200 µl 0.9 % (w/v) NaCl. All assays were performed with a BeckmanCoulter Biomek 2000/SL robotic system. Incorporation of ^33Pi (counting of "cpm") was determined with a microplate scintillation counter (Microbeta, Wallac).
(§6) All protein kinase assays were performed with a BeckmanCoulter Core robotic system.
(§7) All protein kinases provided by ProQinase were expressed in Sf9 insect cells or in E.coli as recombinant GST-fusion proteins or His-tagged proteins. All kinases were produced from human cDNAs and purified by either GSH-affinity chromatography or immobilized metal. Affinity tags were removed from a number of kinases during purification. The purity of the protein kinases was examined by SDS-PAGE/Coomassie staining, the identity was checked by mass spectroscopy.
(§8) Kinases from external vendors (CAR = Carna Biosciences Inc.; INV = Life Technologies (Invitrogen Corporation); MIL = Merck-Millipore (Millipore Corporation)) were expressed, purified and quality-controlled by virtue of the vendors readings.
(§9) For each kinase, the median value of the cpm of six wells of column 1 of each assay plate was defined as "low control" (n=6). This value reflects unspecific binding of radioactivity to the plate in the absence of a protein kinase but in the presence of the substrate. […]

EGF-R d747-752/P753S = biological target: T2, EGF-R d747-752/P753S (Homo sapiens, UniProt P00533, DEL747-752/P753S)
T2 construct: GST or His (not specified per kinase); purchased ProQinase (panel service); host or cells: Sf9 insect cells or E. coli
T2 sequence (P00533 with tags, fused parts or gaps DEL747-752/P753S limits assumed): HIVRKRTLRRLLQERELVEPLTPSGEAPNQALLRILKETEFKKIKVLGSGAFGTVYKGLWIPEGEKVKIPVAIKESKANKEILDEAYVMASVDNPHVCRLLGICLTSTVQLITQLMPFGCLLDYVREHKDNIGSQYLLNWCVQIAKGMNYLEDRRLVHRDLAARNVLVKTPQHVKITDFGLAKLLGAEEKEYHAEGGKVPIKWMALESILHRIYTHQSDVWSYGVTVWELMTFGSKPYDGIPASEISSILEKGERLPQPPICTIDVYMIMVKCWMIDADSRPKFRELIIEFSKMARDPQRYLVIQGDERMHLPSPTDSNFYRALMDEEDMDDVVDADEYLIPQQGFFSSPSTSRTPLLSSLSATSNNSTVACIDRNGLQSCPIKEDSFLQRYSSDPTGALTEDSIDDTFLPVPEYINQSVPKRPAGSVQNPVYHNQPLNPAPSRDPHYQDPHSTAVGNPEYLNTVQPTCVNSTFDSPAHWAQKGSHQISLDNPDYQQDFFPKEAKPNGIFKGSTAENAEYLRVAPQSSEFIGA
Method: as §1, §2, §3, §4, §5, §6, §7, §8, §9

LCK = biological target: T3, LCK (Homo sapiens, UniProt P06239)
T3 construct: GST or His (not specified per kinase); purchased ProQinase (panel service); host or cells: Sf9 insect cells or E. coli
T3 sequence (P06239 whole entry): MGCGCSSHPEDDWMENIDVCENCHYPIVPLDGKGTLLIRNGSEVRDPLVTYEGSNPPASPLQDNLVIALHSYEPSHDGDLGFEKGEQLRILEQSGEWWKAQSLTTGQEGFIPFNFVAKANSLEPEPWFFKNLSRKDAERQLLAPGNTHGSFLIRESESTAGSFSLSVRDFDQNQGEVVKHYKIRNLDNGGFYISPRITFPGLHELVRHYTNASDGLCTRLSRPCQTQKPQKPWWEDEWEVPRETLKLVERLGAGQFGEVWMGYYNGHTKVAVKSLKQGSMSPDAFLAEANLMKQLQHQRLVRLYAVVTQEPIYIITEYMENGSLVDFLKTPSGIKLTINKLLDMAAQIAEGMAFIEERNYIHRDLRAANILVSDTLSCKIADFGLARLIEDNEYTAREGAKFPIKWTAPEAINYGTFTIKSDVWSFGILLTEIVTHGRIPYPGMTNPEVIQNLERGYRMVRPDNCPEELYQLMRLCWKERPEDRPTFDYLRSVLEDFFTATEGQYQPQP
Method: as §1, §2, §3, §4, §5, §6, §7, §8, §9

- remaining activity at 0.5 µM (DDR2 N456S; 0.5 µM test compound): 10%
- remaining activity at 10 µM (DDR2 N456S; 10 µM test compound): 6%
- remaining activity at 0.5 µM (EGF-R d747-752/P753S; 0.5 µM test compound): 47%
- remaining activity at 10 µM (EGF-R d747-752/P753S; 10 µM test compound): 15%
- remaining activity at 0.5 µM (LCK; 0.5 µM test compound): 50%
- remaining activity at 10 µM (LCK; 10 µM test compound): 5%
Compound: Cn1c(=O)c(-c2c(Cl)cccc2Cl)cc2c(N)nc(Nc3ccccc3)nc21 [Compound (1), 4-amino-6-(2,6-dichlorophenyl)-8-methyl-2-(phenylamino)-pyrido[2,3-d]pyrimidin-7(8H)-one]
